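Test compounds were applied to cells in 96-well plates for 48 hours at 5 doses. The concentration for 50% growth inhibition is given as GI50. TGI: total growth inhibition.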
Legend:
Assay in all cases: NCI tumour cell line growth inhibition, 48 h
[1] = tested on: 786-0 renal
[2] = tested on: A498 renal
[3] = tested on: A549 NSCLC
[4] = tested on: ACHN renal
[5] = tested on: BT-549 breast
[6] = tested on: CAKI-1 renal
[7] = tested on: CCRF-CEM leukemia
[8] = tested on: COLO 205 colon
[9] = tested on: DU-145 prostate
[10] = tested on: EKVX NSCLC
[11] = tested on: HCC-2998 colon
[12] = tested on: HCT-116 colon
[13] = tested on: HCT-15 colon
[14] = tested on: HL-60(TB) leukemia
[15] = tested on: HOP-62 NSCLC
[16] = tested on: HOP-92 NSCLC
[17] = tested on: HS 578T breast
[18] = tested on: HT29 colon
[19] = tested on: IGROV1 ovarian
[20] = tested on: K-562 leukemia
[21] = tested on: KM12 colon
[22] = tested on: LOX IMVI melanoma
[23] = tested on: M14 melanoma
[24] = tested on: MALME-3M melanoma
[25] = tested on: MDA-MB-231 breast
[26] = tested on: MDA-MB-435
[27] = tested on: MOLT-4 leukemia
[28] = tested on: NCI-H226 lung
[29] = tested on: NCI-H23 lung
[30] = tested on: NCI-H460 lung
[31] = tested on: NCI-H522 lung
[32] = tested on: NCI/ADR-RES ovarian
[33] = tested on: OVCAR-3 ovarian
[34] = tested on: OVCAR-4 ovarian
[35] = tested on: OVCAR-5 ovarian
[36] = tested on: OVCAR-8 ovarian
[37] = tested on: PC-3 prostate
[38] = tested on: RPMI-8226 leukemia
[39] = tested on: RXF 393 renal
[40] = tested on: SF-268 CNS
[41] = tested on: SF-295 CNS
[42] = tested on: SF-539 CNS
[43] = tested on: SK-MEL-2 melanoma
[44] = tested on: SK-MEL-28 melanoma
[45] = tested on: SK-MEL-5 melanoma
[46] = tested on: SK-OV-3 ovarian
[47] = tested on: SN12C renal
[48] = tested on: SNB-19 CNS
[49] = tested on: SNB-75 CNS
[50] = tested on: SR leukemia
[51] = tested on: SW-620 colon
[52] = tested on: T-47D breast
[53] = tested on: TK-10 renal
[54] = tested on: U251 CNS
[55] = tested on: UACC-62 melanoma
[56] = tested on: UO-31 renal
[57] = tested on: MCF7 breast
[58] = tested on: UACC-257 melanoma

## C=C1C(=O)O[C@H]2[C@H]1CC/C(CNC(=O)c1cc3cc(OC)ccc3[nH]1)=C\CC[C@@]1(C)O[C@@H]21
[1]
  GI50: 1.51 µM
  TGI: 3.2 µM
[2]
  GI50: 1.93 µM
  TGI: 8.64 µM
[3]
  GI50: 3.69 µM
  TGI: 14.4 µM
[4]
  GI50: 1.24 µM
  TGI: 2.84 µM
[5]
  GI50: 1.44 µM
  TGI: 3.42 µM
[6]
  GI50: 1.97 µM
  TGI: 6.25 µM
[7]
  GI50: 1.97 µM
  TGI: 5.93 µM
[8]
  GI50: 1.21 µM
  TGI: 3.04 µM
[9]
  GI50: 1.21 µM
  TGI: 2.78 µM
[10]
  GI50: 1.28 µM
  TGI: 3 µM
[11]
  GI50: 1.66 µM
  TGI: 3.26 µM
[12]
  GI50: 0.645 µM
  TGI: 2.07 µM
[13]
  GI50: 0.825 µM
  TGI: 2.23 µM
[14]
  GI50: 1.97 µM
  TGI: 6.37 µM
[15]
  GI50: 3.22 µM
  TGI: 13.8 µM
[16]
  GI50: 1.56 µM
  TGI: 3.35 µM
[17]
  GI50: 2.88 µM
  TGI: 11.8 µM
[18]
  GI50: 1.41 µM
  TGI: 4.51 µM
[19]
  GI50: 2.04 µM
  TGI: 5.94 µM
[20]
  GI50: 2.56 µM
  TGI: 7.99 µM
[21]
  GI50: 4.98 µM
  TGI: 17.7 µM
[22]
  GI50: 1.36 µM
  TGI: 2.67 µM
[23]
  GI50: 1.5 µM
  TGI: 3.54 µM
[24]
  GI50: 1.62 µM
  TGI: 3.98 µM
[25]
  GI50: 1.71 µM
  TGI: 4.49 µM
[26]
  GI50: 1.73 µM
  TGI: 5.03 µM
[27]
  GI50: 2.08 µM
  TGI: 6.85 µM
[28]
  GI50: 1.71 µM
  TGI: 4.6 µM
[29]
  GI50: 1.77 µM
  TGI: 4.38 µM
[30]
  GI50: 5.51 µM
  TGI: 20 µM
[31]
  GI50: 0.7 µM
  TGI: 2.55 µM
[32]
  GI50: 6.07 µM
  TGI: 23.7 µM
[33]
  GI50: 1.21 µM
  TGI: 2.57 µM
[34]
  GI50: 2 µM
  TGI: 7.57 µM
[35]
  GI50: 2.19 µM
  TGI: 7.35 µM
[36]
  GI50: 2.06 µM
  TGI: 7.78 µM
[37]
  GI50: 1.86 µM
  TGI: 4.04 µM
[38]
  GI50: 1.58 µM
  TGI: 4.39 µM
[39]
  GI50: 1.17 µM
  TGI: 2.61 µM
[40]
  GI50: 1.79 µM
  TGI: 4.47 µM
[41]
  GI50: 4.89 µM
  TGI: 18.7 µM
[42]
  GI50: 1.42 µM
  TGI: 3 µM
[43]
  GI50: 2.18 µM
  TGI: 5.24 µM
[44]
  GI50: 1.62 µM
  TGI: 4.23 µM
[45]
  GI50: 2.01 µM
  TGI: 4.85 µM
[46]
  GI50: 11.2 µM
  TGI: 23.5 µM
[47]
  GI50: 1.7 µM
  TGI: 4.87 µM
[48]
  GI50: 7.94 µM
  TGI: 21.7 µM
[49]
  GI50: 1.9 µM
  TGI: 13.1 µM
[50]
  GI50: 2.24 µM
  TGI: 10.1 µM
[51]
  GI50: 1.15 µM
  TGI: 2.77 µM
[52]
  GI50: 1.47 µM
  TGI: 4.35 µM
[53]
  GI50: 1.88 µM
  TGI: 4.61 µM
[54]
  GI50: 3.35 µM
  TGI: 12.6 µM
[55]
  GI50: 1.52 µM
  TGI: 3.61 µM
[56]
  GI50: 1.27 µM
  TGI: 2.64 µM

## COc1ccc(N2C(=O)CC(Cl)C2=O)cc1 (stereo not drawn)
[1]
  TGI: 32 µM
[2]
  TGI: > 100 µM
[3]
  TGI: > 100 µM
[4]
  TGI: 31.7 µM
[5]
  TGI: > 100 µM
[8]
  TGI: 30 µM
[9]
  TGI: > 100 µM
[10]
  TGI: > 100 µM
[11]
  TGI: 50.6 µM
[12]
  TGI: 32.2 µM
[13]
  TGI: 33.2 µM
[15]
  TGI: > 100 µM
[16]
  TGI: 73.7 µM
[17]
  TGI: > 100 µM
[18]
  TGI: 31.7 µM
[19]
  TGI: > 100 µM
[20]
  TGI: 17.5 µM
[22]
  TGI: 58.9 µM
[23]
  TGI: > 100 µM
[24]
  TGI: 32.8 µM
[57]
  TGI: > 100 µM
[25]
  TGI: 36.5 µM
[26]
  TGI: > 100 µM
[28]
  TGI: 46.4 µM
[29]
  TGI: 48.5 µM
[30]
  TGI: > 100 µM
[31]
  TGI: 36.5 µM
[32]
  TGI: > 100 µM
[33]
  TGI: 28.7 µM
[34]
  TGI: 34.3 µM
[35]
  TGI: 34.1 µM
[36]
  TGI: 30.2 µM
[37]
  TGI: > 100 µM
[38]
  TGI: 37.2 µM
[39]
  TGI: 40.7 µM
[40]
  TGI: > 100 µM
[42]
  TGI: 32.5 µM
[43]
  TGI: > 100 µM
[44]
  TGI: 30.2 µM
[45]
  TGI: > 100 µM
[46]
  TGI: > 100 µM
[47]
  TGI: 32.7 µM
[48]
  TGI: > 100 µM
[49]
  TGI: > 100 µM
[51]
  TGI: 35.2 µM
[52]
  TGI: 38.4 µM
[53]
  TGI: 32.9 µM
[54]
  TGI: > 100 µM
[58]
  TGI: 29.7 µM
[55]
  TGI: 46.5 µM
[56]
  TGI: 33 µM
